This assay deals with HIV-1 (H9/IIIB strain). Description: Multiple round HIV-1 infection assay in MT4-GFP cells (wild type cell assay, Viking). It is filed as cell-based. Conditions: MT4-GFP cells infected with HIV-1 H9/IIIB, inhibition of reproductive ratio R0, ~48 h and ~72 h post-infection. How it is done: The antiviral activity of the Examples herein was assessed in an assay that measures the rate of replication of HIV in cell culture, and performed according to the following procedure. HIV-1 replication was monitored using MT4-gag-GFP clone D3 (hereafter designated MT4-GFP), which are MT-4 cells modified to harbor a GFP reporter gene, the expression of which is dependent on the HIV-1 expressed proteins tat and rev. Productive infection of an MT4-GFP cell with HIV-1 results in GFP expression approximately 24 h post-infection. MT4-GFP cells were maintained at 37° C./5% CO2/90% relative humidity in RPMI 1640 supplemented with 10% fetal bovine serum, 100 U/ml penicillin/streptomycin, and 400 μg/ml G418 to maintain the reporter gene. For infections, MT4-GFP cells were placed in the same medium lacking G418 and infected overnight with HIV-1 (H9/IIIB strain) virus at an approximate multiplicity of infection of 0.01 in the same incubation conditions. Cells were then washed and re-suspended in either RPMI 1640 at 2×10^5 cells/mL (0% NHS condition) or 100% normal human serum (NHS) at 2×10^5 cells/mL (100% NHS condition). Compound plates were prepared by dispensing compounds dissolved in DMSO into wells of 384 well poly-D-lysine-coated plates (0.2 μl/well) using an ECHO acoustic dispenser. Each compound was tested in a 10-point serial 3-fold dilution (typical final concentrations: 1050 nM-0.05 nM for 0% NHS condition or 42 μM-2.13 nM for 100% NHS condition). Controls included no inhibitor (DMSO only) and a combination of three antiviral agents (efavirenz, indinavir, an in-house integrase strand transfer inhibitor at final concentrations of 4 μM each). Cells were added ([…]) to compound plates and the infected cells were maintained at 37° C./5% CO2/90% relative humidity.
Infected cells were quantified at two time points, ˜48 h and ˜72 h post-infection, by counting the number of green cells in each well using an Acumen eX3 scanner. The increase in the number of green cells over ˜24 h period gives the reproductive ratio, R0, which is typically 5-15 and has been shown experimentally to be in logarithmic phase (data not shown). Inhibition of R0 is calculated for each well, and IC50s determined by non-linear 4-parameter curve fitting.

Where [1] appears, read: 0% NHS condition (RPMI 1640), read-out: WILD TYPE CELL ASSAY Viking IP (0% NHS).
Where [2] appears, read: 100% normal human serum condition, read-out: WILD TYPE CELL ASSAY Viking IP (100% NHS).
The mark [3] stands for this setting: Human immunodeficiency virus 1, IIIB, 0% NHS condition (RPMI 1640), read-out: WILD TYPE CELL ASSAY Viking IP (0% NHS).

The structures appear in SMILES notation. Where two headings read alike, the source gives them in different places.

Regarding `CC1N(C)C(=O)c2c(O)c(=O)c(C(=O)NCc3ccc(F)cc3F)c3n2C1(C)CC3O` (single isomer, unassigned) [Compound 69], the IC50 runs as follows: under setting [1], 0.0019 µM; under setting [2], 0.0775 µM.

Consider `CCN1CC2(COC)CC(O)c3c(C(=O)NCc4ccc(F)cc4F)c(=O)c(O)c(n32)C1=O` (single isomer, unassigned) [Compound 58], for which the IC50 reads like this: under setting [1], 0.0023 µM; under setting [2], 0.27 µM.

In the case of `CN1CC2(C)CC(O)c3c(C(=O)NCc4c(F)cc(F)cc4F)c(=O)c(O)c(n32)C1=O` (single isomer, unassigned) [Compound 25], the IC50 came out at 0.0014 µM under setting [3] and 1.7 µM under setting [2].

Consider `CCN1CC2(COC)CC(O)c3c(C(=O)NCc4c(F)cc(F)cc4F)c(=O)c(O)c(n32)C1=O` (stereo not shown) [Compound 63], for which the IC50 by setting is: under setting [3], 0.0029 µM; under setting [2], 9.3 µM.

With `CCC12CC(O)c3c(C(=O)NCc4c(F)ccc(Cl)c4F)c(=O)c(O)c(n31)C(=O)N(C)C2` (stereo not shown) [Compound 55], the IC50 under setting [3] turned out to be 0.0022 µM and the IC50 under setting [2] came out at 0.0936 µM.

For `CN1CC2(C)CC(O)c3c(C(=O)NCc4c(F)cc(F)cc4F)c(=O)c(O)c(n32)C1=O` (stereo not shown) [Compound 27], the IC50 came to 0.0021 µM under setting [1] and 0.029 µM under setting [2].

Regarding `CCN1CC2(COC)CC(O)c3c(C(=O)NCc4c(F)cc(F)cc4F)c(=O)c(O)c(n32)C1=O` (stereo not shown) [Compound 64], the IC50 was 0.0029 µM under setting [1] and 2.74 µM under setting [2].

As for `CCC12CC(O)c3c(C(=O)NCc4c(F)ccc(F)c4F)c(=O)c(O)c(n31)C(=O)N(C)C2` (stereo not shown) [Compound 51], the IC50 worked out at 0.0017 µM under setting [3] and 0.0322 µM under setting [2].

For `CCC12CC(O)c3c(C(=O)NCc4c(F)ccc(Cl)c4F)c(=O)c(O)c(n31)C(=O)N(C)C2` (single isomer, unassigned) [Compound 54], the IC50 was 0.0028 µM under setting [1] and 0.0295 µM under setting [2].

Take `CCN1CC2(COC)CC(O)c3c(C(=O)NCc4ccc(F)cc4F)c(=O)c(O)c(n32)C1=O` (single isomer, unassigned) [Compound 57]: the IC50 was determined as 0.0031 µM under setting [1] and 9.97 µM under setting [2].

Turning to `CCC12CC(O)c3c(C(=O)NCc4c(F)ccc(F)c4F)c(=O)c(O)c(n31)C(=O)N(C)C2` (single isomer, unassigned) [Compound 50], the IC50 is, setting by setting: under setting [1], 0.0029 µM; under setting [2], 0.0255 µM.

As to `CN1CC2(C)CC(O)c3c(C(=O)NCc4cccc(Cl)c4F)c(=O)c(O)c(n32)C1=O` (stereo not shown) [Compound 36], the IC50 runs as follows: under setting [1], 0.0021 µM; under setting [2], 0.0599 µM.

On to `CCC12CC(O)c3c(C(=O)NCc4c(F)ccc(F)c4F)c(=O)c(O)c(n31)C(=O)N(C)C2` (single isomer, unassigned) [Compound 49], for which the IC50 was determined as 0.0026 µM under setting [3] and 1.02 µM under setting [2].

For `CC1N(C)C(=O)c2c(O)c(=O)c(C(=O)NCc3ccc(F)cc3F)c3n2C1(C)CC3O` (single isomer, unassigned) [Compound 67], the IC50 is, setting by setting: under setting [1], 0.0023 µM; under setting [2], 0.0828 µM.

For the compound `CCC12CC(O)c3c(C(=O)NCc4cccc(Cl)c4F)c(=O)c(O)c(n31)C(=O)N(C)C2` (single isomer, unassigned) [Compound 44], the IC50 under setting [1] is 0.0037 µM and the IC50 under setting [2] came to 0.259 µM.

Regarding `CN1CC2(C)CC(O)c3c(C(=O)NCc4ccc(F)cc4)c(=O)c(O)c(n32)C1=O` (stereo not shown) [Compound 24], the IC50 under setting [1] was determined as 0.0012 µM and the IC50 under setting [2] worked out at 0.201 µM.

As to `CN1CC2(C)CC(O)c3c(C(=O)NCc4cccc(Cl)c4F)c(=O)c(O)c(n32)C1=O` (stereo not shown) [Compound 35], the IC50 by setting is: under setting [3], 0.0021 µM; (Human immunodeficiency virus 1, IIIB, 100% normal human serum condition, read-out: WILD TYPE CELL ASSAY Viking IP (100% NHS)) 0.116 µM.

On to `CN1CC2(C)CC(O)c3c(C(=O)NCc4c(F)cc(F)cc4F)c(=O)c(O)c(n32)C1=O` (single isomer, unassigned) [Compound 26], for which the IC50 was 0.0021 µM under setting [1] and 0.107 µM under setting [2].

Regarding `CN1CC2(C)CC(O)c3c(C(=O)NCc4c(F)ccc(Cl)c4F)c(=O)c(O)c(n32)C1=O` (single isomer, unassigned) [Compound 30], the IC50 by setting is: under setting [1], 0.0021 µM; under setting [2], 0.41 µM.

In the case of `CC1C(O)c2c(C(=O)NCc3ccc(F)cc3F)c(=O)c(O)c3n2C1(C)CN(C)C3=O` (single isomer, unassigned) [Compound 78], the IC50 under setting [1] stood at 0.0032 µM and the IC50 under setting [2] turned out to be 0.383 µM.

Take `CCC12CC(O)c3c(C(=O)NCc4ccc(F)cc4F)c(=O)c(O)c(n31)C(=O)N(C)C2` (single isomer, unassigned) [Compound 39]: the IC50 by setting is: under setting [1], 0.0021 µM; under setting [2], 0.322 µM.

Consider `CCC12CC(O)c3c(C(=O)NCc4c(F)cc(F)cc4F)c(=O)c(O)c(n31)C(=O)N(C)C2` (stereo not shown) [Compound 47], for which the IC50 by setting is: under setting [3], 0.0023 µM; under setting [2], 1.46 µM.

Take `CN1CC2(C)CC(O)c3c(C(=O)NCc4ccc(F)cc4)c(=O)c(O)c(n32)C1=O` (single isomer, unassigned) [Compound 22]: the IC50 is, setting by setting: under setting [1], 0.003 µM; under setting [2], 0.227 µM.

For the compound `CCN1CC2(COC)CC(O)c3c(C(=O)NCc4c(F)cc(F)cc4F)c(=O)c(O)c(n32)C1=O` (single isomer, unassigned) [Compound 62], the IC50 reads like this: under setting [1], 0.0024 µM; under setting [2], 0.0605 µM.

As for `CC1N(C)C(=O)c2c(O)c(=O)c(C(=O)NCc3ccc(F)cc3F)c3n2C1(C)CC3O` (single isomer, unassigned) [Compound 68], the IC50 runs as follows: under setting [1], 0.0024 µM; under setting [2], 0.0455 µM.

Consider `CCC12CC(O)c3c(C(=O)NCc4cccc(Cl)c4F)c(=O)c(O)c(n31)C(=O)N(C)C2` (single isomer, unassigned) [Compound 43], for which the IC50 was 0.0037 µM under setting [1] and 1.27 µM under setting [2].

On to `CCC12CC(O)c3c(C(=O)NCc4cccc(Cl)c4F)c(=O)c(O)c(n31)C(=O)N(C)C2` (single isomer, unassigned) [Compound 41], for which the IC50 is 0.0022 µM under setting [1] and 0.0304 µM under setting [2].

With `CC1N(C)C(=O)c2c(O)c(=O)c(C(=O)NCc3ccc(F)cc3F)c3n2C1(C)CC3O` (single isomer, unassigned) [Compound 71], the IC50 runs as follows: under setting [1], 0.0031 µM; under setting [2], 0.0911 µM.

As for `CC1C(O)c2c(C(=O)NCc3ccc(F)cc3F)c(=O)c(O)c3n2C1(C)CN(C)C3=O` (single isomer, unassigned) [Compound 77], the IC50 is, setting by setting: under setting [1], 0.0033 µM; under setting [2], 4.47 µM.

For the origin of these results see patent publication US20210115044A1, “TRICYCLIC HETEROCYCLE COMPOUNDS USEFUL AS HIV INTEGRASE INHIBITORS” (Merck Sharp & Dohme Corp., priority 2018, published 2021).
